Data taken from PubChem BioAssay (NCI).
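Results reflect a 48-hour exposure of cells in 96-well plates to compound at five concentrations. At the TGI there is no net growth.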

Test system: SF-295 CNS
Assay: DTP human tumour cell line panel, 48 h

COc1cc(-c2cc(=O)c3c(OC)c(OC)c(OC)c(OC)c3o2)c(OC)c(OC)c1OC and COc1cc(/C=C2\CCC(C)C3C2=NN(C(C)=O)C3c2cc(OC)c(OC)c(OC)c2)cc(OC)c1OC (stereo not drawn) cannot be ordered by TGI: greater than 100 µM for the first, greater than 100 µM for the second.

Compared with COc1nc(C(=O)NNC(=O)c2nc(OC)c3ccccc3c2-c2ccccc2)c(-c2ccccc2)c2ccccc12, COc1ccc2nc3ccc(OC)cc3c(S(=O)CCCl)c2c1 (stereo not drawn) is lower in TGI: greater than 100 µM for the first, 45.2 µM for the second.

NC(=O)C(N)Cc1ccc(O)cn1 (stereo not drawn) and COC(=O)C(C)(NC(=O)C(CC(=O)OC(C)(C)C)NC(=O)OC(C)(C)C)c1ccccc1 (stereo not drawn) cannot be ordered by TGI: greater than 100 µM for the first, greater than 100 µM for the second.

Test system: SK-MEL-2 melanoma
Assay: DTP human tumour cell line panel, 48 h

Going from O=Cc1ccc2c(c1)CC1(C2)Cc2ccc3c(c2C1)CCC3 (stereo not drawn) to Nc1nc(N)c2[nH]c(CNc3ccc(C(=O)O)cc3)nc2n1, the TGI rises from 14 µM to greater than 100 µM.

CCC(=O)NC(Nc1cccc(F)c1C)(C(F)(F)F)C(F)(F)F and COc1ccc(C(C)NNC(=O)c2ccncc2)c(OC)c1 (stereo not drawn) cannot be ordered by TGI: greater than 100 µM for the first, greater than 100 µM for the second.

Compared with CCCCCN=Cc1c(O)c(O)c(C(C)C)c2cc(C)c(-c3c(C)cc4c(C(C)C)c(O)c(O)c(C=NCCCCC)c4c3O)c(O)c12, COc1ccc(CC2c3cc(Oc4cc(CC5c6cc(OC)c(OC)cc6CCN5C)ccc4O)c(OC)cc3CCN2C)cc1 (stereo not drawn) is lower in TGI: greater than 100 µM for the first, 15.6 µM for the second.

Going from CCc1nc(N)nc(N)c1-c1ccc2nn(-c3ccccc3)[n+]([O-])c2c1 to CCc1nc(N)nc(N)c1-c1ccc(Cl)c(Cl)c1, the TGI rises from 28.7 µM to greater than 100 µM.

O=C(O)/C=N\Nc1nc2ccccc2[nH]1 and CNn1c(-c2ccccc2)n[nH]c1=O cannot be ordered by TGI: greater than 100 µM for the first, greater than 100 µM for the second.

Going from O=c1[nH]c(-c2ccc3ccccc3c2)nc2ccccc12 to O=[N+]([O-])c1cc2oc(COc3ccccc3)nc2cc1Cl, the TGI falls from greater than 100 µM to 44.2 µM.

Compared with CC(C)(C)c1cc(C(P(=O)(c2ccccc2)c2ccccc2)P(=O)(c2ccccc2)c2ccccc2)cc(C(C)(C)C)c1O, COc1nc(C(=O)NNC(=O)c2nc(OC)c3ccccc3c2-c2ccccc2)c(-c2ccccc2)c2ccccc12 is higher in TGI: 3.88 µM for the first, greater than 100 µM for the second.

Compared with NS(=O)(=O)c1nn2c(Br)c(-c3ccccc3)nc2s1, COc1ccc2nc3ccc(OC)cc3c(S(=O)CCCl)c2c1 (stereo not drawn) is 2.1-fold higher in TGI: 16.9 µM for the first, 35.3 µM for the second.

CCN(CC)c1c(N(CC)CC)c(=O)c1=O and COc1cc(-c2cc(=O)c3c(OC)c(OC)c(OC)c(OC)c3o2)c(OC)c(OC)c1OC are within 1.5-fold of each other in TGI: 66.9 µM for the first, 49.4 µM for the second.

COc1cc(/C=C2\CCC(C)C3C2=NN(C(C)=O)C3c2cc(OC)c(OC)c(OC)c2)cc(OC)c1OC (stereo not drawn) was tested, and the TGI was greater than 42.4 µM.

Test system: SK-OV-3 ovarian
Assay: DTP human tumour cell line panel, 48 h

Going from O=Cc1ccc2c(c1)CC1(C2)Cc2ccc3c(c2C1)CCC3 (stereo not drawn) to Nc1nc(N)c2[nH]c(CNc3ccc(C(=O)O)cc3)nc2n1, the TGI rises from 45.1 µM to greater than 100 µM.

First: C=C(C)C(CC=C(C)C)CC12CC(CC=C(C)C)C(C)(C)C(CC=C(C)C)(C(=O)C(Cc3ccc(O)c(O)c3)=C1O)C2=O (stereo not drawn)
Second: CCCCCN=Cc1c(O)c(O)c(C(C)C)c2cc(C)c(-c3c(C)cc4c(C(C)C)c(O)c(O)c(C=NCCCCC)c4c3O)c(O)c12
The TGI of the first is higher: greater than 100 µM for the first, 39.7 µM for the second.

CCC(=O)NC(Nc1cccc(F)c1C)(C(F)(F)F)C(F)(F)F and COC(=O)C(C)(NC(=O)C(CC(=O)OC(C)(C)C)NC(=O)OC(C)(C)C)c1ccccc1 (stereo not drawn) cannot be ordered by TGI: greater than 100 µM for the first, greater than 100 µM for the second.

CCc1nc(N)nc(N)c1-c1ccc2nn(-c3ccccc3)[n+]([O-])c2c1 and CCc1nc(N)nc(N)c1-c1ccc(Cl)c(Cl)c1 cannot be ordered by TGI: greater than 69.3 µM for the first, greater than 100 µM for the second.

O=C(O)/C=N\Nc1nc2ccccc2[nH]1 and CNn1c(-c2ccccc2)n[nH]c1=O cannot be ordered by TGI: greater than 100 µM for the first, greater than 100 µM for the second.

Going from O=c1[nH]c(-c2ccc3ccccc3c2)nc2ccccc12 to O=[N+]([O-])c1cc2oc(COc3ccccc3)nc2cc1Cl, the TGI falls from greater than 100 µM to 59.9 µM.

Going from COc1ccc(CC2c3cc(Oc4cc(CC5c6cc(OC)c(OC)cc6CCN5C)ccc4O)c(OC)cc3CCN2C)cc1 (stereo not drawn) to COc1cc(/C=C2\CCC(C)C3C2=NN(C(C)=O)C3c2cc(OC)c(OC)c(OC)c2)cc(OC)c1OC (stereo not drawn), the TGI rises from 16.5 µM to greater than 100 µM.

Going from COc1ccc(C(C)NNC(=O)c2ccncc2)c(OC)c1 (stereo not drawn) to COc1ccc2nc3ccc(OC)cc3c(S(=O)CCCl)c2c1 (stereo not drawn), the TGI falls from greater than 100 µM to 40.2 µM.

CC(C)(C)OC(=O)NCC(O)CNC(=O)OC(C)(C)C and CC(C)(C)c1cc(C(P(=O)(c2ccccc2)c2ccccc2)P(=O)(c2ccccc2)c2ccccc2)cc(C(C)(C)C)c1O cannot be ordered by TGI: greater than 100 µM for the first, greater than 10 µM for the second.

First: NS(=O)(=O)c1nn2c(Br)c(-c3ccccc3)nc2s1
Second: COc1nc(C(=O)NNC(=O)c2nc(OC)c3ccccc3c2-c2ccccc2)c(-c2ccccc2)c2ccccc12
The TGI of the first is lower: 28.4 µM for the first, greater than 100 µM for the second.

CCN(CC)c1c(N(CC)CC)c(=O)c1=O and COc1cc(-c2cc(=O)c3c(OC)c(OC)c(OC)c(OC)c3o2)c(OC)c(OC)c1OC cannot be ordered by TGI: greater than 100 µM for the first, greater than 100 µM for the second.

Test system: SR leukemia
Assay: DTP human tumour cell line panel, 48 h

Compared with O=Cc1ccc2c(c1)CC1(C2)Cc2ccc3c(c2C1)CCC3 (stereo not drawn), Nc1nc(N)c2[nH]c(CNc3ccc(C(=O)O)cc3)nc2n1 is higher in TGI: 18.3 µM for the first, greater than 100 µM for the second.

C=C(C)C(CC=C(C)C)CC12CC(CC=C(C)C)C(C)(C)C(CC=C(C)C)(C(=O)C(Cc3ccc(O)c(O)c3)=C1O)C2=O (stereo not drawn) and CCCCCN=Cc1c(O)c(O)c(C(C)C)c2cc(C)c(-c3c(C)cc4c(C(C)C)c(O)c(O)c(C=NCCCCC)c4c3O)c(O)c12 cannot be ordered by TGI: greater than 100 µM for the first, greater than 100 µM for the second.

CCC(=O)NC(Nc1cccc(F)c1C)(C(F)(F)F)C(F)(F)F and COc1ccc(C(C)NNC(=O)c2ccncc2)c(OC)c1 (stereo not drawn) cannot be ordered by TGI: greater than 100 µM for the first, greater than 100 µM for the second.

Compared with CCc1nc(N)nc(N)c1-c1ccc2nn(-c3ccccc3)[n+]([O-])c2c1, O=c1[nH]c(-c2ccc3ccccc3c2)nc2ccccc12 is higher in TGI: 34.1 µM for the first, greater than 100 µM for the second.

O=C(O)/C=N\Nc1nc2ccccc2[nH]1 and CNn1c(-c2ccccc2)n[nH]c1=O cannot be ordered by TGI: greater than 100 µM for the first, greater than 100 µM for the second.

With COc1ccc(CC2c3cc(Oc4cc(CC5c6cc(OC)c(OC)cc6CCN5C)ccc4O)c(OC)cc3CCN2C)cc1 (stereo not drawn) the TGI was 4.6 µM.
